Test results reported in the OligoGym collection.
HELM strings list units from the 5' end as sugar, base in round brackets, then linkage (d deoxyribose, r ribose, m 2'-O-methyl, p phosphodiester). Strings are as the collection lists them; they lack the last nucleoside at the 3' end of the tested compound. [moe] = 2'-O-(2-methoxyethyl) (MOE); [sp] = phosphorothioate linkage; [m5C] = 5-methylcytosine

Molecular target: GFAP
Assay: mouse, dose not given
Settings: ASO

Substance | 3 h FOB score [score 0-7]
RNA1{[moe](T)[sp].[moe](G)p.[moe](T)p.[moe](G)p.[moe](T)p.d(A)[sp].d(T)[sp].d(T)[sp].d(A)[sp].d(G)[sp].d(G)[sp].d(A)[sp].d(T)[sp].d([m5C])[sp].d([m5C])[sp].[moe]([m5C])p.[moe](A)p.[moe](T)[sp].[moe]([m5C])}$$$$ (last 3' nucleoside missing) | 3
RNA1{[moe]([m5C])[sp].[moe](A)p.[moe]([m5C])p.[moe](A)p.[moe](T)p.d(T)[sp].d([m5C])[sp].d(A)[sp].d([m5C])[sp].d(T)[sp].d(A)[sp].d(A)[sp].d(T)[sp].d(A)[sp].d(T)[sp].[moe](T)p.[moe](T)p.[moe](A)[sp].[moe](A)}$$$$ (last 3' nucleoside missing) | 0
RNA1{[moe]([m5C])[sp].[moe](T)p.[moe](T)p.[moe](T)p.[moe](A)[sp].d(T)[sp].d(T)[sp].d(T)[sp].d(T)[sp].d(T)[sp].d([m5C])[sp].d([m5C])[sp].d(T)[sp].d([m5C])[sp].d(A)[sp].[moe](G)p.[moe]([m5C])p.[moe](G)[sp].[moe](A)}$$$$ (last 3' nucleoside missing) | 0
RNA1{[moe](T)[sp].[moe]([m5C])p.[moe](T)p.[moe](G)p.[moe]([m5C])p.d([m5C])[sp].d(A)[sp].d(T)[sp].d(T)[sp].d(T)[sp].d(A)[sp].d(T)[sp].d([m5C])[sp].d(T)[sp].d(G)[sp].[moe](T)p.[moe](G)p.[moe]([m5C])[sp].[moe](T)}$$$$ (last 3' nucleoside missing) | 1
RNA1{[moe]([m5C])[sp].[moe](T)p.[moe]([m5C])p.[moe]([m5C])p.[moe](A)[sp].d(T)[sp].d([m5C])[sp].d(T)[sp].d([m5C])[sp].d(T)[sp].d(G)[sp].d(G)[sp].d([m5C])[sp].d(A)[sp].d(A)[sp].[moe]([m5C])p.[moe](A)p.[moe](G)[sp].[moe](T)}$$$$ (last 3' nucleoside missing) | 4
RNA1{[moe](T)[sp].[moe](G)p.[moe](G)p.[moe]([m5C])p.[moe](A)[sp].d(G)[sp].d(T)[sp].d(A)[sp].d(T)[sp].d(T)[sp].d(A)[sp].d([m5C])[sp].d([m5C])[sp].d(T)[sp].d([m5C])[sp].[moe](T)p.[moe](A)p.[moe]([m5C])[sp].[moe](T)}$$$$ (last 3' nucleoside missing) | 1
RNA1{[moe]([m5C])[sp].[moe](A)p.[moe](T)p.[moe]([m5C])p.[moe](T)[sp].d(G)[sp].d([m5C])[sp].d(T)[sp].d(T)[sp].d([m5C])[sp].d([m5C])[sp].d(T)[sp].d(G)[sp].d(G)[sp].d(A)[sp].[moe](G)p.[moe](T)p.[moe](G)[sp].[moe](G)}$$$$ (last 3' nucleoside missing) | 1
RNA1{[moe](A)[sp].[moe](G)p.[moe](T)p.[moe](G)p.[moe](T)[sp].d(G)[sp].d(T)[sp].d(A)[sp].d(T)[sp].d(T)[sp].d(A)[sp].d(G)[sp].d(G)[sp].d(A)[sp].d(T)[sp].[moe]([m5C])p.[moe]([m5C])p.[moe]([m5C])[sp].[moe](A)}$$$$ (last 3' nucleoside missing) | 5
RNA1{[moe](G)[sp].[moe]([m5C])p.[moe](A)p.[moe](G)p.[moe](T)[sp].d(A)[sp].d(T)[sp].d(T)[sp].d(A)[sp].d([m5C])[sp].d([m5C])[sp].d(T)[sp].d([m5C])[sp].[moe](T)p.[moe](A)p.[moe]([m5C])[sp].[moe](T)}$$$$ (last 3' nucleoside missing) | 1
RNA1{[moe]([m5C])[sp].[moe]([m5C])p.[moe]([m5C])p.[moe]([m5C])p.[moe](T)[sp].d(T)[sp].d(T)[sp].d([m5C])[sp].d(T)[sp].d([m5C])[sp].d(T)[sp].d([m5C])[sp].d([m5C])[sp].d(T)[sp].d(G)[sp].[moe](T)p.[moe](T)p.[moe](T)[sp].[moe]([m5C])}$$$$ (last 3' nucleoside missing) | 2
RNA1{[moe](G)[sp].[moe](T)p.[moe](A)p.[moe]([m5C])p.[moe]([m5C])[sp].d([m5C])[sp].d(T)[sp].d(G)[sp].d(G)[sp].d(T)[sp].d(A)[sp].d(T)[sp].d(G)[sp].d(A)[sp].d(T)[sp].[moe](A)p.[moe](G)p.[moe](G)[sp].[moe]([m5C])}$$$$ (last 3' nucleoside missing) | 6
RNA1{[moe](G)[sp].[moe](T)p.[moe]([m5C])p.[moe](T)p.[moe](T)[sp].d(T)[sp].d(A)[sp].d(T)[sp].d(T)[sp].d(T)[sp].d(T)[sp].d(T)[sp].d([m5C])[sp].[moe]([m5C])p.[moe](T)p.[moe]([m5C])[sp].[moe](A)}$$$$ (last 3' nucleoside missing) | 4
RNA1{[moe]([m5C])[sp].[moe](A)p.[moe](T)p.[moe](T)p.[moe](T)p.[moe](G)p.d(T)[sp].d([m5C])[sp].d(T)[sp].d(T)[sp].d(T)[sp].d(A)[sp].d(T)[sp].d(T)[sp].d(T)[sp].d(T)[sp].[moe](T)p.[moe]([m5C])[sp].[moe]([m5C])}$$$$ (last 3' nucleoside missing) | 0
RNA1{[moe](G)[sp].[moe]([m5C])p.[moe](T)p.[moe](T)p.[moe](T)[sp].d(T)[sp].d(G)[sp].d(A)[sp].d(G)[sp].d(A)[sp].d(T)[sp].d(A)[sp].d(T)[sp].d([m5C])[sp].d(T)[sp].[moe](T)p.[moe](G)p.[moe](T)[sp].[moe](G)}$$$$ (last 3' nucleoside missing) | 2
RNA1{[moe]([m5C])[sp].[moe](T)p.[moe](T)p.[moe](G)p.d(T)[sp].d(G)[sp].d(A)[sp].d(T)[sp].d(T)[sp].d(T)[sp].d(T)[sp].d([m5C])[sp].d([m5C])[sp].d([m5C])[sp].[moe]([m5C])p.[moe](G)p.[moe](T)p.[moe]([m5C])[sp].[moe](T)}$$$$ (last 3' nucleoside missing) | 0
RNA1{[moe](A)[sp].[moe](G)p.[moe](A)p.[moe](G)p.[moe](A)[sp].d(T)[sp].d(G)[sp].d(G)[sp].d(G)[sp].d(T)[sp].d(G)[sp].d(A)[sp].d(G)[sp].d(G)[sp].d(T)[sp].[moe](G)p.[moe](A)p.[moe](G)[sp].[moe](G)}$$$$ (last 3' nucleoside missing) | 7
RNA1{[moe](T)[sp].[moe](T)p.[moe](G)p.[moe](G)p.d(T)[sp].d(G)[sp].d([m5C])[sp].d(T)[sp].d(T)[sp].d(T)[sp].d(T)[sp].d(G)[sp].d([m5C])[sp].d([m5C])[sp].[moe]([m5C])p.[moe]([m5C])p.[moe]([m5C])p.[moe](T)[sp].[moe](G)}$$$$ (last 3' nucleoside missing) | 1
RNA1{[moe](A)[sp].[moe]([m5C])p.[moe](A)p.[moe](T)p.[moe](T)p.d([m5C])[sp].d(A)[sp].d([m5C])[sp].d(T)[sp].d(A)[sp].d(A)[sp].d(T)[sp].d(A)[sp].d(T)[sp].d(T)[sp].[moe](T)p.[moe](A)p.[moe](A)[sp].[moe]([m5C])}$$$$ (last 3' nucleoside missing) | 0
RNA1{[moe](T)[sp].[moe](T)p.[moe](G)p.[moe](G)p.[moe](T)p.[moe](G)p.d([m5C])[sp].d(T)[sp].d(T)[sp].d(T)[sp].d(T)[sp].d(G)[sp].d([m5C])[sp].d([m5C])[sp].d([m5C])[sp].d([m5C])[sp].[moe]([m5C])p.[moe](T)[sp].[moe](G)}$$$$ (last 3' nucleoside missing) | 1
RNA1{[moe](T)[sp].[moe](G)p.[moe](A)p.[moe](G)p.[moe](T)[sp].d([m5C])[sp].d(T)[sp].d([m5C])[sp].d(A)[sp].d(G)[sp].d(T)[sp].d(T)[sp].d(T)[sp].d(T)[sp].d([m5C])[sp].[moe]([m5C])p.[moe](T)p.[moe]([m5C])[sp].[moe]([m5C])}$$$$ (last 3' nucleoside missing) | 0
RNA1{[moe](T)[sp].[moe](T)p.[moe](T)p.[moe](G)p.[moe](A)p.d(G)[sp].d(A)[sp].d(T)[sp].d(A)[sp].d(T)[sp].d([m5C])[sp].d(T)[sp].d(T)[sp].d(G)[sp].d(T)[sp].[moe](G)p.[moe](A)p.[moe]([m5C])[sp].[moe]([m5C])}$$$$ (last 3' nucleoside missing) | 3
RNA1{[moe](G)[sp].[moe](G)p.[moe]([m5C])p.[moe](A)p.d([m5C])[sp].d(A)[sp].d(G)[sp].d(T)[sp].d(T)[sp].d([m5C])[sp].d([m5C])[sp].d([m5C])[sp].d(A)[sp].d(G)[sp].[moe](A)p.[moe](T)p.[moe](A)p.[moe]([m5C])[sp].[moe](T)}$$$$ (last 3' nucleoside missing) | 1
RNA1{[moe](G)[sp].[moe](T)p.[moe](G)p.[moe]([m5C])p.[moe](T)[sp].d(T)[sp].d(T)[sp].d(A)[sp].d(G)[sp].d(T)[sp].d(G)[sp].d(A)[sp].d([m5C])[sp].d([m5C])[sp].d(T)[sp].[moe](G)p.[moe](T)p.[moe](G)[sp].[moe](A)}$$$$ (last 3' nucleoside missing) | 5
RNA1{[moe]([m5C])[sp].[moe](T)p.[moe](T)p.[moe](G)p.[moe](T)p.d(G)[sp].d(A)[sp].d(T)[sp].d(T)[sp].d(T)[sp].d(T)[sp].d([m5C])[sp].d([m5C])[sp].d([m5C])[sp].d([m5C])[sp].[moe](G)p.[moe](T)p.[moe]([m5C])[sp].[moe](T)}$$$$ (last 3' nucleoside missing) | 3
RNA1{[moe](G)[sp].[moe](T)p.[moe]([m5C])p.[moe](T)p.[moe](T)[sp].d(T)[sp].d(A)[sp].d(T)[sp].d(T)[sp].d(T)[sp].d(T)[sp].d(T)[sp].d([m5C])[sp].d([m5C])[sp].d(T)[sp].[moe]([m5C])p.[moe](A)p.[moe](G)[sp].[moe]([m5C])}$$$$ (last 3' nucleoside missing) | 5
RNA1{[moe](A)[sp].[moe]([m5C])p.[moe](T)p.[moe](A)p.[moe](T)[sp].d([m5C])[sp].d(T)[sp].d(A)[sp].d(G)[sp].d(G)[sp].d(A)[sp].d(T)[sp].d(T)[sp].[moe](T)p.[moe](G)p.[moe](G)[sp].[moe]([m5C])}$$$$ (last 3' nucleoside missing) | 4
